Results from the OPERA property sets (Mansouri et al. 2018).

Row | Structure (SMILES) | logP
1 | O=C1NC(=O)C(c2cccnc2)N1 (centres undefined) | -0.95
2 | NC(=O)c1ccccc1NC(=O)C(Cl)Cl | 1.68
3 | S=C(NN=Cc1ccco1)Nc1ccccc1 | 3.13
4 | CN(N=O)C(N)=O | -0.03
5 | O=[N+]([O-])c1ccc2c(c1)c([N+](=O)[O-])cc[n+]2[O-] | 0.9
6 | Nc1ccc(Cl)cc1N | 1.28
7 | CC(=O)Oc1ccc(N)cc1 | 0.45
8 | Oc1ccc(C(F)(F)F)cc1 | 2.82
9 | CCCCNc1ccccc1 | 3.58
10 | COc1cccc(Cl)c1 | 2.98
11 | O=C(O)Cc1ccc(C(F)(F)F)cc1 | 2.45
12 | CCOCCOCC | 0.66
13 | C1COCCO1 | -0.27
14 | OC[C@H]1O[C@@H](Oc2ccccc2)[C@H](O)[C@@H](O)[C@@H]1O | -0.75
15 | O=[N+]([O-])c1ccc(CCO)cc1 | 1.12
16 | O=[N+]([O-])c1nccn1CC(O)CN1CCCCC1 (centres undefined) | 1
17 | CC(=O)c1ccccc1Cl | 2.09
18 | CC(=O)Nc1ccc2ncccc2c1 | 1.55
19 | COP(=O)(OC)SCn1nnc2ccccc2c1=O | 0.78
20 | CCOP(=S)(OCC)SCSC(C)(C)C | 4.48
21 | Cc1cccc(Cl)c1Nc1ccccc1CC(=O)O | 4.37
22 | CCOC(=O)C(=Cc1ccc(F)cc1)C(=O)OCC | 3.1
23 | CCCCC(N)Cc1ccccc1 (centres undefined) | 3.36
24 | NCc1cc(O)no1 | -2.39
25 | CCC(=O)Nc1ccccc1 | 1.61

Row | Structure (SMILES) | logP
26 | CC(=O)Nc1cccnc1 | 0.41
27 | NC(=O)c1ccsc1 | 0.5
28 | O=C(c1ccccc1)n1c(=O)[nH]cc(F)c1=O | 0.8
29 | CC(=O)CCC(=O)O | -0.49
30 | O=C(Cc1cccs1)N[C@@H]1C(=O)N2C(C(=O)[O-])=C(C[n+]3ccccc3)CS[C@H]12 | -1.62
31 | CC(=O)OC1CC(OC2C(O)CC(OC3C(C)OC(OC4CCC5(C)C(CCC6C5CC(O)C5(C)C(C7=CC(=O)OC7)CCC65O)C4)CC3OC(C)=O)OC2C)OC(C)C1O (centres undefined) | 2.45
32 | COC(=O)C(C)N(C(=O)Cc1ccccc1)c1c(C)cccc1C (centres undefined) | 3.4
33 | ON=Cc1ccc(Cl)cc1 | 2.67
34 | COc1cccc(OCC(=O)O)c1 | 1.38
35 | COC(=O)c1c[nH]c(C)c1 | 1.96
36 | Nc1cccc(O)c1 | 0.21
37 | CSSC | 1.77
38 | CCCc1ccccc1O | 2.93
39 | CCOCC | 0.89
40 | CC1CC(C)CN(N=O)C1 (centres undefined) | 1.53
41 | CCCC1CCCc2ncc(C(=O)OC)c(=O)n21 (centres undefined) | 1.14
42 | OC(Cn1ccnc1)c1ccc(CCc2ccccc2)cc1 (centres undefined) | 3.4
43 | C=CCNCCC | 1.33
44 | CCN(CC)C(C)=O | 0.34
45 | CCCCCc1cc(OC)c(CC(C)N)cc1OC (centres undefined) | 4.43
46 | CC(C)CC(N)Cc1ccccc1 (centres undefined) | 3.29
47 | CC(C)OC(=O)c1ccccc1C(=O)OC(C)C | 2.83
48 | CC(=O)N[C@@H](Cc1ccccc1)C(=O)N[C@@H](CCC(N)=O)C(N)=O | -1.03
49 | O=C(O)COc1ccc(S(=O)(=O)F)cc1 | 1.82
50 | Cc1ccc(/N=C/N(C)/C=N/c2ccc(C)cc2C)c(C)c1 | 5.5

Row | Structure (SMILES) | logP
51 | CCOC(=O)C(=Cc1ccc(OC)cc1)C(C)=O | 2.46
52 | CC(=O)c1cccc(OC(=O)N(C)C)c1 | 1.18
53 | CN(C)C(=O)c1cccs1 | 0.75
54 | OC12CC3CC(CC(C3)C1)C2 | 2.14
55 | C=CCCCCCC | 4.57
56 | CCCCOCCOCCSC#N | 1.68
57 | COc1cc(CCO)ccc1O | 0.47
58 | CC(=O)NC(=O)C1CCC1 | -0.4
59 | COCc1ccc([N+](=O)[O-])o1 | 0.89
60 | O=c1c2ccccc2oc2ccccc12 | 3.39
61 | CN(C)N=Nc1ccccc1C(N)=O | 1.73
62 | CC1=NOC(=O)C1=NNc1ccccc1Cl | 2.6
63 | Cc1cc(=O)oc2cc(O)ccc12 | 1.9
64 | CCOC(=O)CC(SP(=S)(OC)OC)C(=O)OCC (centres undefined) | 2.36
65 | CCOc1cc(C(=O)NN)ccn1 | 0.48
66 | COCc1ccccc1 | 1.92
67 | CCOP(=S)(OCC)SC(CCl)N1C(=O)c2ccccc2C1=O (centres undefined) | 4.69
68 | COP(=S)(OC)Oc1cc(C)c([N+](=O)[O-])c(C)c1 | 3.89
69 | CC(C)(C)C1Nc2cc(Cl)c(S(N)(=O)=O)cc2S(=O)(=O)N1 (centres undefined) | 0.36
70 | CCN(CC)CCOC(=O)C=Cc1cc(OC)c(OC)c(OC)c1 | 2.84
71 | N#C/C=C/c1ccccc1 | 1.96
72 | CCCCCSCS(=O)CC(CO)NC(=O)C=Cc1c(C)[nH]c(=O)[nH]c1=O (centres undefined) | 0.6
73 | CNCc1ccccc1 | 1.52
74 | O=C(CCl)NC(CO)C(O)c1ccc([N+](=O)[O-])cc1 (centres undefined) | 0.59
75 | O=C1CC(=O)N(c2ccccc2)N1c1ccccc1 | 1.45

Row | Structure (SMILES) | logP
76 | CC(Br)C(=O)O (centres undefined) | 0.92
77 | O=C(NP(=O)(N1CC1)N1CC1)c1ccccc1Br | 1.08
78 | CC(=O)Nc1ccc(I)cc1 | 2.71
79 | CCCN(CCC)C(=O)SCC | 3.21
80 | COc1ccc(N(C)C)cc1 | 1.42
81 | Cn1nnc2ccccc2c1=O | 0.84
82 | Cn1ccnc1 | -0.06
83 | Nc1ccc(Cl)nn1 | 0.35
84 | CC1CN1C1=CC(=O)c2ccccc2C1=O (centres undefined) | 2.17
85 | Cc1ccc(CO)cc1 | 1.58
86 | NC(Cc1c[nH]c2cc(F)ccc12)C(=O)O (centres undefined) | -0.78
87 | CN1CC[C@]23CCCC[C@H]2[C@H]1Cc1ccc(O)cc13 | 3.11
88 | CC(=O)Nc1cccc2ncccc12 | 0.71
89 | Cc1ccccc1C(O)c1ccccc1 (centres undefined) | 3.06
90 | O=[N+]([O-])c1ccc(N=C=S)cc1 | 3.62
91 | CN(C)C(N(C)C)=S(I)c1cccc(F)c1 (centres undefined) | -0.53
92 | O[C@@H]1CCCC[C@H]1O | 0.08
93 | CCCC(C)(C)c1ccc(C2CCCC(O)C2)c(O)c1 (centres undefined) | 4.82
94 | NC(=O)c1ccoc1 | 0.09
95 | Nc1ccc(Cl)cc1 | 1.83
96 | C[C@H](N)[C@H](O)c1cccc(O)c1 | -0.27
97 | CCS(=O)(=O)c1ccc(S(N)(=O)=O)c2ccccc12 | 1.24
98 | CCc1ccc2ccccc2c1 | 4.38
99 | C(=Nc1ccccc1)c1ccccc1 | 2.82
100 | CC(O)CCC(=O)c1ccoc1 (centres undefined) | 0.84

Row | Structure (SMILES) | logP
101 | C=C1C(=O)OC2CC(C)C3C=CC(=O)C3(C)C(O)C12 (centres undefined) | 0.36
102 | CC(Cl)(Cl)Cl | 2.49
103 | CSc1nnc(C(C)(C)C)c(=O)n1N | 1.7
104 | O=c1ccnc(S)[nH]1 | -0.28
105 | Nc1cc(Cl)c(Cl)cc1N | 2
106 | CC(=O)OC1C(=O)C2(C)C(O)CC3OCC3(OC(C)=O)C2C(OC(=O)c2ccccc2)C(C)(O)C2(C)CC(OC(=O)C(C)O)C(C)=C12 (centres undefined) | 1.52
107 | C/C=C/C=C/C(=O)O | 1.33
108 | Cc1ccccc1C(=O)O | 2.46
109 | NC(=O)CCCCOC(=O)c1ccccc1 | 1.39
110 | CC(CN(C)C)CN1c2ccccc2S(=O)(=O)c2ccccc21 (centres undefined) | 2.51
111 | CC(=O)Nc1ccc([N+](=O)[O-])cc1 | 1.66
112 | CC(C)(C)NC[C@H](O)COc1nsnc1N1CCOCC1 | 1.83
113 | O=C1NC(=O)C(c2ccccc2)(c2ccc(O)cc2)N1 (centres undefined) | 1.7
114 | CCC1CCCCN1C(=O)COC(=O)c1ccccc1 (centres undefined) | 2.62
115 | C=CCCC=C | 2.87
116 | O=C(N/N=C/c1cc[nH]c1)Nc1ccccc1 | 2.96
117 | CC(C)CCOc1cc(N)ccc1C(=O)O | 2.3
118 | CCCOc1c(OC)cc(CCN)cc1OC | 1.7
119 | C=CCCC(C)=O | 1.02
120 | C=C(C)c1ccccc1 | 3.48
121 | CC(=O)Nc1ccc(S(I)=C(N(C)C)N(C)C)cc1 (centres undefined) | -1.58
122 | COC(=O)C(C)(C)C | 1.83
123 | OCc1cccc(Cl)c1 | 1.94
124 | NC(=O)c1ccc(O)cc1 | 0.33
125 | O=C(O)c1cccc(C(F)(F)F)c1 | 2.95

Row | Structure (SMILES) | logP
126 | CCNCCc1cccnc1 | 0.54
127 | O=Cc1cccc([N+](=O)[O-])c1 | 1.47
128 | CC(=O)NCCCOc1cccc(CN2CCCCC2)c1 | 2.15
129 | CCC(C(c1ccc(OC)cc1)c1ccc(OC)cc1)[N+](=O)[O-] (centres undefined) | 4.45
130 | CCN(CC)CCNC(=O)c1cc([N+](=O)[O-])c(N)cc1OC | 2.11
131 | CCCCCCc1ccc(C(=O)OCCN(C)C)cc1 | 5.2
132 | CC(C)(C)c1ccccn1 | 2.4
133 | CNC(=O)Nc1ccccc1 | 1.12
134 | FC(F)(F)F | 1.18
135 | COc1ccc(N(CCCC(=O)O)C(=O)c2ccc(Cl)cc2)cc1 | 2.7
136 | CC(C)(Oc1ccc(Cl)cc1)C(=O)O | 2.57
137 | COC(=O)c1ccc(C(=O)OC)cc1 | 2.25
138 | Oc1nc2ccccc2s1 | 1.76
139 | CCCCNCCCC | 2.83
140 | CCCCOC(=O)n1cnc(CC(NC(=O)C2CCC(=O)N2)C(=O)N2CCCC2C(N)=O)c1 (centres undefined) | -0.47
141 | CCN(N=O)C(C)C | 0.9
142 | O=CNC(=O)C1CCC1 | -0.7
143 | CC(=O)Nc1cccc(OCc2cccc(NC(=N)NC(=N)N)c2)c1 | 1.82
144 | CCn1nnc2ccccc21 | 1.58
145 | Cc1nn(-c2ccccc2)c(C)c1N=O | 2.28
146 | CC(=O)Nc1ccc(O)c(C(C)(C)C)c1 | 2.36
147 | Nc1ccc(C(=O)O)c(I)c1 | 1.65
148 | O=NN(c1ccccc1)c1ccccc1 | 3.13
149 | c1ccc2c(c1)CCO2 | 2.14
150 | O=S(=O)(N=[N+]([O-])c1ccccc1)c1ccccc1 | 2.87

Row | Structure (SMILES) | logP
151 | Cc1ncc([N+](=O)[O-])n1CCNC(=O)OCc1ccccc1 | 1.69
152 | Clc1cc(Cl)c(Cl)c(Cl)c1 | 4.56
153 | NC(=O)CF | -1.05
154 | O=P1(N(CCCl)CCCl)NCCCO1 (centres undefined) | 0.63
155 | CCCC(C)(COC(N)=O)COC(N)=O | 0.7
156 | CN(C)c1cccnc1 | 1.41
157 | O=Cc1cccc(Oc2ccccc2)c1 | 3.38
158 | NS(=O)(=O)NCCc1ccccc1 | 0.81
159 | NN1CCCCC1 | -0.28
160 | CN(C)C=CC#N | 0.47
161 | O=S1(=O)NC(C(F)(F)F)=Nc2cc(Cl)ccc21 | 1.65
162 | O=[N+]([O-])c1ccccn1 | 0.48
163 | Cc1c(Cl)ccc(OC(C)C(O)=Nc2ccccc2)c1Cl (centres undefined) | 4.8
164 | O=C(O)c1ccc(O)c(O)c1 | 0.86
165 | CC(C)Oc1ccc(CC#N)cc1 | 2.53
166 | OCCCc1ccccc1 | 1.88
167 | O=C1CCC(N2C(=O)c3ccccc3C2=O)C(=O)N1 (centres undefined) | 0.33
168 | Cc1ccc(OC(=O)c2ccc(N)cc2O)cc1 | 3.38
169 | CCOC(=O)NC(O)C(Cl)(Cl)Cl (centres undefined) | 1.84
